Experiments:
[1] = tested on: patients with cancer-related psychiatric and existential distress; experiment: Spielberger State-Trait Anxiety Inventory (STAI), long-term follow-up; format: in vivo, human; conditions: single 0.3 mg/kg dose with psychotherapy; for STAI State Anxiety: baseline 43.94; for STAI Trait Anxiety: baseline 47.81
Protocol: (§1) The present example assesses the long-term effects of a single dose of psilocybin (0.3 mg/kg) in conjunction with psychotherapy in patients with cancer-related psychiatric and existential distress.
(§2) 29 participants were randomly assigned to one of two groups: psilocybin (0.3 mg/kg) on the first medication session followed by niacin (250 mg) on the second session (i.e. psilocybin-first group), or niacin (250 mg) on the first medication session followed by psilocybin (0.3 mg/kg) on the second session (i.e. niacin-first group). Psilocybin and niacin were administered in identically appearing gelatin capsules.
(§3) Participants received three 2-hour preparatory psychotherapy sessions in order to review the purpose and intention of participation in the study, treatment goals, and structure of the treatment sessions. Medications were administered in 8-hour treatment sessions which included a discussion of the participant's subjective experience with the treatment team to consolidate the memory of the experience and to begin the process of post-integrative psychotherapy. Participants also received three 2-hour post-medication integration sessions (repeated after the second dosing session) to further consolidate the memory of the experience and to continue the process of psychological integration. All psychotherapy treatment sessions were delivered by a dyadic therapy team trained in a blend of psychotherapies with an evidence base to support their use in cancer patients (drawing upon principles of palliative care therapy, existential psychotherapy, cognitive-behavioural therapy, psychoanalysis therapy, and transpersonal psychology) and were taught about the safety and clinical pharmacology of psilocybin. Each therapy dyad underwent six confidential one-to-one sessions to build their alliance and exchange ideas about psychedelic therapy. The trial employed a crossover design at seven weeks following the first drug administration, with an outcome assessment at 6.5 months (26 weeks) following the second drug administration (i.e. after the crossover).
(§4) Two long-term follow ups (LTFUs) were carried out to assess the continued effect of psilocybin. Of the original 29 participants, all 16 participants who were not deceased at the time of LTFU were contacted (the remaining 13 participants were deceased). Of the 16 participants who were contacted, 15 agreed to participate in the LTFU and completed measures through a secure online portal. One participant died (from cancer-related complications) after completing the first LTFU and prior to the second LTFU, leaving us with 14 participants at the second LTFU. The first and second LTFUs occurred on average 3.2 years (range 2.3-4.5 years) and 4.5 years (range 3.5-5.5 years) following the participants' psilocybin dosing date, respectively.
Primary outcomes (anxiety and depression) were measured according to the following methods: • Hospital Anxiety and Depression Scale (HADS) (Zigmond and Snaith, 1983)—this is widely used in hospital settings to screen for the severity of anxiety and depression. It contains 14 questions rated on a four-point scale (total score (HAD-T) ranges from 0-56). Subscale scores can be calculated for depression (HADS-D) and anxiety (HADS-A). […] The HADS has shown good reliability (Cronbach's a ranging from 0.80-0.93) and has been well validated (Herrmann, 1997). • Beck Depression Inventory-II (BDI-II) (Beck et al., 1988)—a widely used self-report screening measure for depression. […]

[2] = tested on: patients with cancer-related psychiatric and existential distress; experiment: Primary outcome measures (anxiety and depression) combined: effect sizes, clinical response and remission rates; format: in vivo, human
Protocol: as §1, §2, §3, §4
Primary outcomes (anxiety and depression) were measured according to the following methods: • Hospital Anxiety and Depression Scale (HADS) (Zigmond and Snaith, 1983)—this is widely used in hospital settings to screen for the severity of anxiety and depression. It contains 14 questions rated on a four-point scale (total score (HAD-T) ranges from […]). Subscale scores can be calculated for depression (HADS-D) and anxiety (HADS-A). […] The HADS has shown good reliability (Cronbach's a ranging from 0.80-0.93) and has been well validated (Herrmann, 1997). • Beck Depression Inventory-II (BDI-II) (Beck et al., 1988)—a widely used self-report screening measure for depression. The BDI-II consists of 21 questions about depressive symptoms experienced over the past two weeks rated on a […] scale (total score ranges from 0-63). Scores above 12 indicate possible clinical depression. This measure has shown good reliability (internal consistency of 0.90) and factorial validity (Storch et al. 2004). • Spielberger State-Trait Anxiety Inventory (STAI) (Spielberger, 1983)—a well-known measure of anxiety consisting of scales for state (STAI-S) and trait-level anxiety (STAI-T). […]

[3] = mean score at 6.5-8 months, p < 0.001 vs baseline
[4] = second LTFU point (mean 4.5 years)

## CN(C)CCc1c[nH]c2cccc(OP(=O)(O)O)c12 [psilocybin, [3-(2-dimethylaminoethyl)-1H-indol-4-yl] dihydrogen phosphate]
[1]; mean score at 3.2 years, p < 0.01 vs baseline
  STAI State Anxiety: 33.00
[1]; mean score at 4.5 years, p < 0.05 vs baseline
  STAI State Anxiety: 34.41
[1]; mean score at 4.5 years, p < 0.01 vs baseline
  STAI Trait Anxiety: 35.78
[1]; [3]
  STAI State Anxiety: 29.84
  STAI Trait Anxiety: 28.23
[2]; 4.5 year time point
  participants meeting criteria for clinical antidepressant or anxiolytic response and remission: 60-80%
[2]; 6.5-month point
  mean Cohen's d, reductions in symptoms since baseline on primary measures (anxiety and depression): 1.90
  range of Cohen's d, primary measures (anxiety and depression): 1.27-2.67
[2]; 6.5 months after psilocybin administration
  participants meeting criteria for clinical antidepressant or anxiolytic response and remission: 60-80%
[2]; first LTFU (mean 3.2 years)
  mean Cohen's d, reductions in symptoms since baseline on primary measures (anxiety and depression): 1.30
  range of Cohen's d, primary measures (anxiety and depression): 0.93-1.97
[2]; second LTFU (4.5 years, n=14), 50% or greater reduction plus HADS-D≤7 or BDI≤12
  depression symptom remission rates: 50-79%
[2]; second LTFU (4.5 years, n=14), 50% or greater reduction relative to baseline
  percentages of clinical responses for depression on the HADS-D and BDI: 57-79%
[2]; [4]
  mean Cohen's d, reductions in symptoms since baseline on primary measures (anxiety and depression): 1.41
  range of Cohen's d, primary measures (anxiety and depression): 0.86-1.89

Source: patent publication US20220151993A1, “TREATMENT OF ANXIETY AND DEPRESSION” (NEW YORK UNIVERSITY, priority 2020, published 2022)
